Test results reported in patent EP0687685A1, “PHYSIOLOGICALLY ACTIVE PEPTIDE” (TEIJIN LIMITED, priority 1993, dated 1994).
Positions of bridges follow the written chain, without caps; N, C: chain ends. Residues, ends and D or L forms follow the SMILES beside them. *: point of attachment. Mob = COc1ccc(C*)cc1

Assays:
human type II PLA₂ [1] = target: T1, human type II PLA₂ (Homo sapiens, UniProt P14555); experiment: Inhibition of binding between heparin and human II-type PLA₂ (heparin-bound plate, biotinated PLA₂)
T1 construct: made in house; host or cells: Sf9 insect cells, baculovirus (AcNPV), vector pAcTJI1; purified from culture supernatant
T1 sequence (P14555 21-144): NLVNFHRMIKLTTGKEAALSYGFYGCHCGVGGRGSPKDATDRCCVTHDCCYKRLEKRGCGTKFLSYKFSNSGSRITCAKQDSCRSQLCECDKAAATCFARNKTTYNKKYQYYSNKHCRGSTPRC
Method: 500 µg of human type II (non-pancreatic) purified in Reference Example 1 was reacted with 2 ml of a solution of 5 mM sulfosuccinyl 6-(biotinamide hexose) in 0.1M NaHCO₃ at a room temperature for one hour, and the product was purified by a heparin Sepharose column to obtain biotinated human type II PLA₂.
50 µl of a phosphate buffered saline (PBS) containing 50 µg/ml poly-L-lysine was added to each well of a 96-well ELISA plate, and after incubation at room temperature for an hour, each well was twice washed with PBS, 50 µl of PBS solution containing 20 µg/ml heparin was added to each well, and a reaction was further carried out at a room temperature for an hour. Each well was twice washed with PBS, 200 µl of PBS solution containing 30 mg/ml bovine serum albumin (BSA) was added to each well, and after reaction at 37°C for an hour, the plate was stored at 4°C.
To each well of a peparin-bound plate prepared in Reference Example 3, 50 µl of a solution containing a peptide obtained in Examples 1 to 10 was added. After incubating at room temperature for 45 minutes, 50 µg/ml biotinated human II-type PLA₂ obtained in Example 2 was added thereon, and reaction was further carried out at room temperature for an hour. Each well was washed three times with PBS containing 0.05% Tween 20, 50 µl of a 3% BSA/PBS solution containing alkaline phosphatase-conjugated streptoavidin (Taga, ×2000 dilution) was added thereon, and a reaction was carried out at a room temperature for an hour. Each well was washed three times with PBS containing 0.05% Tween 20, 100 µl of a 1 mM p-nitrophenylphosphate/1M ethanolamine aqueous solution (pH 9.8) was added thereon, and a reaction was carried out at room temperature for an hour. Absorption of reaction mixture was measured at 405 nm using a microplate reader (Molecular Device Inc). A result is shown in Fig. 9, and IC₅₀ (µM) was also obtained.

human type II PLA₂ [2] = target: T1, human type II PLA₂; experiment: Enzyme inhibition of human type II PLA₂ in the presence of heparin, radiolabeled synthetic phospholipid (method of Dole); assay type: biochemical

## CC(C)C[C@@H]1NC(=O)[C@H](Cc2ccccc2)NC(=O)[C@H](CCCCN)NC(=O)[C@H]([C@@H](C)O)NC(=O)CNC(=O)[C@@H](NC(=O)CNC(=O)[C@H](CCCNC(=N)N)NC(=O)[C@@H](N)CCCCN)CSSC[C@@H](C(=O)O)NC(=O)[C@H](CO)NC(=O)[C@H](Cc2ccccc2)NC(=O)[C@H](CCCCN)NC(=O)[C@H](Cc2ccc(O)cc2)NC(=O)[C@H](CO)NC1=O [Peptide (20)] (H-KRGCGTKFLSYKFSC-OH; disulfide 4-15 (inferred); N-terminus and C-terminus assumed)
Human type II PLA₂ [1]
  inhibitory activity to binding of human type II PLA₂ to heparin: strong inhibitory activity
Human type II PLA₂ [2]; in the presence of heparin
  inhibitory activity to type II PLA₂ enzyme: inhibitory activity
Human type II PLA₂ [2]; peptide 1 µg/ml, heparin 50 µg/ml, PLA₂ enzyme 200 ng/ml
  inhibition at 1 µg/mL: 10%
Human type II PLA₂ [2]; peptide 1 µg/ml, heparin 50 µg/ml, PLA₂ enzyme 200 ng/ml, read-out: PLA₂enzyme activity (%)
  remaining activity at 1 µg/mL: 90%
Human type II PLA₂ [2]; peptide 5 µg/ml, heparin 50 µg/ml, PLA₂ enzyme 200 ng/ml
  inhibition at 5 µg/mL: 59%
Human type II PLA₂ [2]; peptide 5 µg/ml, heparin 50 µg/ml, PLA₂ enzyme 200 ng/ml, read-out: PLA₂enzyme activity (%)
  remaining activity at 5 µg/mL: 41%
Human type II PLA₂ [2]; peptide 10 µg/ml, heparin 50 µg/ml, PLA₂ enzyme 200 ng/ml
  inhibition at 10 µg/mL: 72%
Human type II PLA₂ [2]; peptide 10 µg/ml, heparin 50 µg/ml, PLA₂ enzyme 200 ng/ml, read-out: PLA₂enzyme activity (%)
  remaining activity at 10 µg/mL: 28%
Human type II PLA₂ [2]; peptide 50 µg/ml, heparin 50 µg/ml, PLA₂ enzyme 200 ng/ml
  inhibition at 50 µg/mL: 82%
Human type II PLA₂ [2]; peptide 50 µg/ml, heparin 50 µg/ml, PLA₂ enzyme 200 ng/ml, read-out: PLA₂enzyme activity (%)
  remaining activity at 50 µg/mL: 18%
Human type II PLA₂ [2]; peptide 100 µg/ml, heparin 50 µg/ml, PLA₂ enzyme 200 ng/ml
  inhibition at 100 µg/mL: 90%
Human type II PLA₂ [2]; peptide 100 µg/ml, heparin 50 µg/ml, PLA₂ enzyme 200 ng/ml, read-out: PLA₂enzyme activity (%)
  remaining activity at 100 µg/mL: 10%

## COc1ccc(CSC[C@H](NC(=O)[C@H](CO)NC(=O)[C@H](Cc2ccccc2)NC(=O)[C@H](CCCCN)NC(=O)[C@H](Cc2ccc(O)cc2)NC(=O)[C@H](CO)NC(=O)[C@H](CC(C)C)NC(=O)[C@H](Cc2ccccc2)NC(=O)[C@H](CCCCN)NC(=O)[C@@H](NC(=O)CNC(=O)[C@H](CS)NC(=O)CNC(=O)[C@H](CCCNC(=N)N)NC(=O)[C@@H](N)CCCCN)[C@@H](C)O)C(=O)O)cc1 [Peptide (3)] (H-KRGCGTKFLSYKFSC(Mob)-OH)
Human type II PLA₂ [1]
  IC50: 2700 nM

## COc1ccc(CSC[C@H](NC(=O)CNC(=O)[C@H](CCCNC(=N)N)NC(=O)[C@@H](N)CCCCN)C(=O)NCC(=O)N[C@H](C(=O)N[C@@H](CCCCN)C(=O)N[C@@H](Cc2ccccc2)C(=O)N[C@@H](CC(C)C)C(=O)N[C@@H](CO)C(=O)N[C@@H](Cc2ccc(O)cc2)C(=O)N[C@@H](CCCCN)C(=O)N[C@@H](Cc2ccccc2)C(=O)N[C@@H](CO)C(=O)N[C@@H](CS)C(=O)O)[C@@H](C)O)cc1 [Peptide (1)] (H-KRGC(Mob)GTKFLSYKFSC-OH)
Human type II PLA₂ [1]
  IC50: 1400 nM
